Values of other authors as cited in US8058304B2, “Merged ion channel modulating compounds and uses thereof” (Cardiome Pharma Corp., priority 2004, dated 2011).

Tested on: patients with left ventricular dysfunction after recent and remote myocardial infarction
Settings: optically pure d-sotalol; SWORD study, Lancet 1996

In the case of `CC(C)NC[C@@H](O)c1ccc(NS(C)(=O)=O)cc1` [d-sotalol], the “increased mortality compared to placebo” value is given as 65%.
